Measured values: the METLIN SMRT retention time set (Domingo-Almenara et al. 2019)

Assay: gradient 5% acetonitrile 3 min, to 50% in 2 min, to 85% in 15 min, held 3 min, 100 µL/min
Details: column: Zorbax Extend-C18 2.1 x 50 mm; eluents: water / acetonitrile, 0.1% formic acid
Summary of the method: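 Values are retention times taken from adduct peaks that software picked and an analyst inspected. The pure standards were run as mixtures of ~100 molecules on HPLC linked to a quadrupole time-of-flight mass spectrometer, in positive and negative ionization mode. A Zorbax Extend-C18 column (2.1 × 50 mm, 1.8 μm) was used at 100 μL/min with water and acetonitrile, each including 0.1% formic acid.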

RP-LC retention time [s] | SMILES
847 | CCOc1ccc(-n2ccn3cc(-c4cccc(OC)c4)nc3c2=O)cc1
735 | Cn1nnc(-c2ccc(-c3ccc(N4C[C@@H](CO)OC4=O)cc3F)cn2)n1
565 | O=C(NCC1CCCO1)c1cn2ccccc2n1 (stereo not drawn)
576 | COc1ccc2[nH]c(=O)c(CCC(=O)NCCc3ccccn3)cc2c1
784 | CCn1c(N2CCC(C(=O)NC3CCCCC3)CC2)cc(=O)n(C)c1=O
677 | O=C(NCc1ccccc1Cl)C1CCN(c2cncnc2N2CCCC2)CC1
606 | COc1ccc(C(=O)NCC(=O)Nc2nc3ccccc3[nH]2)cc1
937 | O=C(c1cc(F)ccc1F)N1CCN(C(=O)c2nnn3c2COC(c2ccc(Cl)cc2)C3)CC1 (stereo not drawn)
975 | Cn1cc2c3c(cccc31)CN(C(=O)c1ccccc1Cl)CC2
1240 | Cc1ccc(NS(=O)(=O)c2c(C)sc(C)c2-c2cc(C(F)(F)F)on2)c(C)c1
844 | COc1ccc(-c2nnc(-c3ccc(C)c(S(=O)(=O)N4CCOCC4)c3)o2)cc1OC
663 | COc1ccc(OC)c(CNC(=O)C2CCN(S(=O)(=O)c3cn(C)cn3)CC2)c1
598 | O=C(C1CCOCC1)N1CCC(Oc2nccnc2N2CCOCC2)C1 (stereo not drawn)
807 | COc1ccc(-c2c(C)noc2NC(C)=O)cc1S(=O)(=O)Nc1ccc(Cl)cc1F
704 | CCN(C(=O)Cn1c(C(C)NC(=O)c2ccco2)nc2ccccc21)c1ccccc1 (stereo not drawn)
795 | COCC(=O)N(CC(=O)N1CCc2sccc2C1COc1ccccc1OC)C(C)C (stereo not drawn)
606 | O=C(Nc1ccc2c(c1)OCCO2)C1(CCO)CCN(c2ncccn2)C1 (stereo not drawn)
760 | CCOC(=O)N1CCC(NC(=O)c2csc(-n3cccc3)n2)CC1
1020 | CCc1nn(CC)c(=O)c2cc(S(=O)(=O)NCc3ccc(F)cc3Cl)cn12
706 | CCNC(=O)Nc1ccc2c(c1)CN(C(=O)Nc1ccc3c(c1)OCCO3)CCO2
1020 | CCCn1c(=O)sc2cc(S(=O)(=O)N3CCC(C(=O)N4CCc5ccccc54)CC3)ccc21
777 | Cc1noc(C2CN(C(=O)Nc3ccc4c(c3)CCC4)CC23CCOCC3)n1 (stereo not drawn)

RP-LC retention time [s] | SMILES
696 | Cn1cc(C2c3ccccc3C(=O)N2CC(N)=O)c2ccccc21 (stereo not drawn)
763 | O=C(Cn1nc2c(N3CCCCCC3)nccn2c1=O)Nc1cccc(Cl)c1
582 | CCNc1cc(N2CCCC(CCC(=O)NC(C)c3c(C)nn(C)c3C)C2)ncn1 (stereo not drawn)
847 | COc1ccccc1OC(C)C(=O)N(Cc1ccc(C)o1)C1CCS(=O)(=O)C1 (stereo not drawn)
769 | O=C(c1ccc[nH]1)N1CCC2(CC1)NC(=O)N(Cc1cccc(Cl)c1)C2=O
839 | COc1ccc(NC(=O)Cn2c(=O)c(CCC(=O)NC3CCCCC3)nc3ccccc32)c(OC)c1
961 | O=C(NC1CCCCC1)c1cn(-c2cc(-c3nc(C4CC4)no3)ccn2)cn1
581 | CNC(=O)C1CCN(Cc2noc(-c3ccc(F)cc3)n2)CC1
1160 | CC1Oc2ccccc2N(Cc2nc(-c3ccc(Cl)cc3)no2)C1=O (stereo not drawn)
604 | COc1ccc(Cl)cc1S(=O)(=O)Nc1ccc2nc(N3CCN(C)CC3)cc(C(=O)O)c2c1
727 | Cc1ccccc1CNC(=O)C1CCCN(c2nnc(C)c3c(C)n(-c4ccccc4)nc23)C1 (stereo not drawn)
674 | COc1ccc(N2C(=O)CCC(C(=O)NC(C)C)C2c2ccc(OC)c(OC)c2)cc1 (stereo not drawn)
749 | Cc1ccc(NC(=O)C2CCN(c3nnc4ccc(Cl)cn34)CC2)c(F)c1
830 | COc1ccc(NC(=O)Cn2nc3cc(-c4ccccc4)nc(C)n3c2=O)cc1OC
1220 | O=C(COc1ccc(Cl)cc1)Nc1nc(-c2cccc3ccccc23)cs1
618 | CCOc1ccc(-c2[nH]ncc2CN2CCn3c(nn(C)c3=O)C2)cc1
1060 | Cc1ccc(NC(=O)Cn2cnc3c(sc4nc(-c5ccccc5)ccc43)c2=O)c(C)c1
787 | CCOc1ccc2ncc(S(=O)(=O)c3ccccc3)c(N3CCN(C)CC3)c2c1
771 | Cc1cc(-c2nnc(-c3ccc(F)cc3)o2)c(C)n1CC(=O)NCC1CCCO1 (stereo not drawn)
878 | O=c1ccn(-c2ccc(F)c(F)c2)nc1-c1nc(-c2ccccc2)no1
673 | CCC(C)NC(=O)C1CCN(Cc2cn(C)c3ccc(Cl)cc23)CC1 (stereo not drawn)
1110 | Fc1cccc(-c2nnc(Cc3nc(-c4ccc(Cl)cc4)no3)o2)c1

RP-LC retention time [s] | SMILES
955 | CC(C)c1ccc(NC(=O)CN2C(=O)C3CCCCN3c3ccc(S(=O)(=O)N(C)C)cc32)cc1 (stereo not drawn)
1100 | C=CCn1c(=O)c2ccccc2n(Cc2nc(-c3ccc(SC)cc3)no2)c1=O
708 | Cc1nc(CC(=O)NCc2ccc(F)c(Cl)c2)sc1C(=O)NC1CC1
789 | CCN1C(=O)C2(CCN(C(=O)c3ccnn3CC)CC2)c2ccccc21
650 | Cc1noc(-c2cc(=O)n(CC(=O)Nc3ccc(N(C)C)cc3)c3ccccc23)n1
667 | O=C(NC1CCN(c2cc(-c3cccs3)[nH]n2)C1)c1ccccn1 (stereo not drawn)
670 | CCCNC(=O)C1CCCN(c2ccc(SCC(=O)Nc3ccccc3Br)nn2)C1 (stereo not drawn)
782 | O=C(Cn1nc(C2CC2)cc1C(=O)N1CCCC1)NCc1cccc(Cl)c1
776 | O=C(CCCc1ccccc1)N1CCC(c2noc(-c3cnccn3)n2)C1 (stereo not drawn)
627 | Cn1c(=O)n(CCN2CCOCC2)c(=O)c2c1nc1n2CCCN1C1CCCCC1
1000 | Cc1ccc(-c2nc(NC(=O)c3sc(C)nc3C)sc2C)cc1
654 | CCn1c(=O)n(CC)c2cc(N3CCCC3)c(NC(=O)NCc3cccc(F)c3)cc21
708 | CCOc1ccc(CNC(=O)C2CCN(Cc3cn(C)c4ccccc34)CC2)cc1OCC
610 | COc1ccc(C2(C(=O)N3CCN(C(=O)c4cc(-c5ccncc5)n[nH]4)CC3)CC2)cc1
544 | O=C(COc1ccc(Cl)cc1)NCC#CCN1CCCC1
562 | CC(C)NC(=O)NC1CCN(c2nc3ccccc3n(C)c2=O)CC1
730 | CCOC(=O)c1oc2ccc(S(=O)(=O)N3CCC(c4ccncc4)CC3)cc2c1C
556 | CN(C)C[C@@H]1CN(C2CCOCC2)C[C@H]1NC(=O)C1(c2ccccc2)CC1
698 | Cc1nc(OCC(=O)NCc2ccc3c(c2)OCO3)c2ccccc2n1
590 | CN(C)CCCn1c(C2CC(=O)N(c3ccc(F)cc3)C2)nc2ccccc21 (stereo not drawn)
656 | CCCCN(CCNC(=O)C1CCCN(c2ncnc3c2nc2n3CCCCC2)C1)Cc1ccco1 (stereo not drawn)
1180 | Cc1cc(Cl)ccc1OCc1nc(-c2ccc3c(c2)nnn3CCC(=O)N2CCCCCC2)no1

RP-LC retention time [s] | SMILES
669 | CCN(CC)S(=O)(=O)c1ccc2c(c1)CC(C(=O)NCc1ccc(N(C)C)cc1)N2C(C)=O (stereo not drawn)
598 | COCCN1C(=O)[C@H]2CN(Cc3cc(OC)cc(OC)c3)C[C@H]2C1=O
720 | CC(C)C(=O)Nc1ccc(C2(C(=O)O)CCC2)cc1
928 | O=C(NC1CCCCC1)C1CCN(S(=O)(=O)c2ccc(-c3noc(C4CC4)n3)cc2)CC1
814 | Cc1cc(C)c(S(=O)(=O)N2CCC[C@@H]2C(=O)NCCc2csc(C)n2)c(C)c1
1010 | CCc1nc(-c2csc(S(=O)(=O)N3CCCC(C(=O)NCc4ccccc4C)C3)c2)no1 (stereo not drawn)
1070 | Fc1ccc(-c2noc(Cc3nnc(-c4ccc(Cl)cc4)o3)n2)cc1
784 | Nc1ccc(SCc2nnc(-c3cccc(F)c3)o2)cc1
608 | Cc1nnc(C2CCCCCN2C(=O)CCc2c(C)nn(C)c2C)o1 (stereo not drawn)
613 | Cc1nc(N2CCOCC2)c2c(C(=O)NCC3CCN(Cc4ccccc4Cl)CC3)c(C)oc2n1
958 | Cc1ccc(CNC(=O)CSc2nccc(N3CCN(c4cc(C)ccc4C)CC3)n2)cc1
918 | COc1ccc(-c2nnc(-c3ccc(C)c(S(=O)(=O)Nc4ccc(Cl)cn4)c3)o2)cc1OC
600 | COCCCNC(=O)CC1Sc2ncccc2N(C)C1=O (stereo not drawn)
999 | Cc1ccc(-c2nnc(-c3ccccc3Cl)o2)cc1S(=O)(=O)N(C)C
790 | c1cc2nncn2nc1NC1CCCCC1
579 | Cc1nnc(N2CCCC(C(=O)NCc3cccnc3)C2)c2nn(-c3ccccc3)c(C)c12 (stereo not drawn)
811 | O=C(Nc1c(F)cccc1F)N1CCc2nc(-c3ccccc3)ncc2C1
635 | Cc1ccc(-c2cn3c(n2)N(C(=O)C2CCCO2)CCC3)cc1 (stereo not drawn)
1170 | COC(=O)c1cc(C)nc2c1c(=O)n(Cc1cc(C)ccc1C)c(=O)n2Cc1ccco1
593 | CC(C)CNC(=O)N(C)Cc1nc2cc(C(=O)NC(C)C)ccc2n1C
909 | Cn1c(=O)c2c(nc(OCCc3ccccc3)n2C)n(C)c1=O
753 | Cc1ccc(-c2ccc(N3CCCC(C(=O)Nc4ccc5c(c4)OCO5)C3)nn2)cc1 (stereo not drawn)
